Results taken from paper PMC8217011, “Natural brominated phenoxyphenols kill persistent and biofilm-incorporated cells of MRSA and other pathogenic bacteria” (Applied Microbiology and Biotechnology, 2020).

Tests used:
[1] = system: MRSA vector control strain harbouring empty plasmid pLA03; experiment: MIC in recombinant strain, empty vector control; type: cell-based; conditions: Staphylococcus aureus
Procedure: (§1) To corroborate the role as potential determinants of resistance, mtlA and tetR were overexpressed under control of an anhydrotetracycline (Atc)-inducible promoter, and the effect on sensitivity toward 3-bromo-PP was analysed (Fig. 4e). […] However, induction of mtlA or tetR expression in the presence of Atc strongly rendered the cells more susceptible to 3-bromo-PP resulting in MICs of 0.019 μM for mtlA and 0.078 μM for tetR overexpression, respectively. This translates into a […] and 8-fold increased sensitivity during mtlA or tetR overexpression, respectively, compared with the empty vector control (Fig. 4e).

[2] = system: MRSA strain containing pLA03::mtlA; experiment: MIC in recombinant strain, mtlA overexpression; type: cell-based, Staphylococcus aureus; conditions: for MIC: Staphylococcus aureus, MRSA
Procedure: as §1

[3] = system: MtlA; experiment: Global proteome analysis of sublethally treated cells; type: cell-based, Staphylococcus aureus; conditions: Mu50 cells, sublethal concentration allowing ca. 50% residual growth
Procedure: After in-solution digestion (ISD) peptides were desalted on home-made C18 StageTips (Rappsilber et al. [2007]). Briefly, the peptide solution was passed over the MeOH pre-conditioned and 0.5% formic acid (FA) equilibrated StageTip. Immobilised peptides were then washed twice with 0.5% (v/v) FA. Washed peptides were eluted from the StageTips with 80% (v/v) ACN and 0.5% (v/v) FA and dried using a vacuum concentrator (Eppendorf). Before LC-MS, peptide samples were resuspended in 10 μL 0.1% (v/v) FA.
LC-MS/MS experiments were performed on an Orbitrap Elite instrument (Michalski et al. [2012]) (Thermo) that was coupled to an EASY-nLC 1000 liquid chromatography (LC) system (Thermo). […] Product ion spectra were recorded in a data-dependent fashion in the ion trap (ITMS) in a variable scan range and at a rapid scan rate. […] Peptides were analysed using a repeating cycle consisting of a full precursor ion scan (1.0 × 10^6 ions or 50 ms) followed by 15 product ion scans (1.0 × 10^4 ions or 100 ms), where peptides are isolated based on their intensity in the full survey scan (threshold of 500 counts) for tandem mass spectrum (MS2) generation that permits peptide sequencing and identification. […]
RAW spectra were submitted to an Andromeda (Cox et al. [2011]) search in MaxQuant (version 1.5.3.30) using the default settings (Cox and Mann [2008]). Label-free quantification was activated (Cox et al. [2014]). […]

[4] = system: MRSA strain containing pLA03::tetR; experiment: MIC in recombinant strain, tetR overexpression; type: cell-based, Staphylococcus aureus; conditions: for MIC: Staphylococcus aureus, MRSA
Procedure: as §1

[5] = induced with Atc (1 μg/mL anhydrotetracycline)

## Oc1c(Br)cc(Br)c(Br)c1Oc1ccc(Br)cc1Br [3-bromo-PP, 3,4,6-tribromo-2-(2′,4′-dibromophenoxy)phenol]
[1]
  MIC: ~0.625 µM
[2]; [5]
  MIC: 0.019 µM
[2]; non-induced
  MIC: 0.312 µM
[2]; mtlA overexpression
  increased sensitivity compared with the empty vector control: 33 fold
[3]
  downregulation of MtlA protein: approx. 2.5 fold
[4]; [5]
  MIC: 0.078 µM
[4]; non-induced
  MIC: 0.312 µM
[4]; tetR overexpression
  increased sensitivity compared with the empty vector control: 8 fold
